Reference: ChEMBL document CHEMBL1201862, “PubChem BioAssay data set” (2004)
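Protocol summary: plate cells (96-well), add compound at 5 concentrations, incubate 48 h, interpolate endpoints linearly. GI50 = concentration required for 50% inhibition of growth.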 Activity calls are given as the source filed them. Rule as the data show it: active = GI50 up to about 1.1 µM and inactive = higher.

Experiments:
Assay in all cases: NCI tumour cell line growth inhibition, 48 h
[1] = system: A498
[2] = system: COLO 205
[3] = system: EKVX
[4] = system: HCC 2998
[5] = system: HCT-116
[6] = system: HCT-15
[7] = system: IGROV-1
[8] = system: M14
[9] = system: MCF7
[10] = system: MDA-MB-231
[11] = system: NCI-H23
[12] = system: PC-3
[13] = system: SF-268
[14] = system: SK-MEL-2
[15] = system: SN12C
[16] = system: SNB-19
[17] = system: SNB-75
[18] = system: T47D
[19] = system: UACC-257
[20] = system: UACC-62

Compound: CC1=C2C(=CO[C@H](C)[C@H]2C)C(O)=C(C(=O)O)C1=O [CITRININ]
- GI50 [1]: 0.782 µM (active)
- GI50 [2]: 33.9 µM (inactive)
- GI50 [3]: 18.7 µM (inactive)
- GI50 [4]: 19.1 µM (inactive)
- GI50 [5]: 25.8 µM (inactive)
- GI50 [6]: 16.9 µM
- GI50 [7]: 18.6 µM (inactive)
- GI50 [8]: 23 µM (inactive)
- GI50 [9]: 15.7 µM (inactive)
- GI50 [10]: 23.2 µM (inactive)
- GI50 [11]: 20.5 µM (inactive)
- GI50 [12]: 32 µM (inactive)
- GI50 [13]: 7 µM (inactive)
- GI50 [14]: 16.3 µM (inactive)
- GI50 [15]: 21.7 µM (inactive)
- GI50 [16]: 21.9 µM (inactive)
- GI50 [17]: 32.6 µM (inactive)
- GI50 [18]: 29.2 µM (inactive)
- GI50 [19]: 29.7 µM (inactive)
- GI50 [20]: 20.3 µM (inactive)

Compound: COc1cc2ccc(=O)oc2cc1O [SCOPOLETIN]
- GI50 [1]: 80.4 µM (inactive)
- GI50 [2]: 142 µM (inactive)
- GI50 [3]: 57.5 µM (inactive)
- GI50 [4]: 98.4 µM (inactive)
- GI50 [5]: 56.4 µM (inactive)
- GI50 [6]: 25.1 µM
- GI50 [7]: 69.3 µM (inactive)
- GI50 [8]: > 100 µM (inactive)
- GI50 [9]: 118 µM (inactive)
- GI50 [10]: > 100 µM (inactive)
- GI50 [11]: 69 µM (inactive)
- GI50 [12]: > 100 µM (inactive)
- GI50 [13]: 92.3 µM (inactive)
- GI50 [14]: 109 µM (inactive)
- GI50 [15]: 51.4 µM (inactive)
- GI50 [16]: 44 µM (inactive)
- GI50 [17]: 50.8 µM (inactive)
- GI50 [18]: > 100 µM (inactive)
- GI50 [19]: 71.9 µM (inactive)
- GI50 [20]: 71.3 µM (inactive)
